This is an account of results in US5712297A, “Piperdine compounds and their preparation and use” (Novo Nordisk A/S, priority 1989, dated 1998).

For series [1] the following is noted: in words; cited from earlier work.
The subject of series [2] is muscarinic receptors. To be noted: in words; cited from earlier work.
For series [3] the following is noted: in words; cited from earlier work. This is another data set of the same source.
Series [4] concerns muscarinic receptors. As to conditions: known; in words; cited from earlier work.
Series [5] concerns the target muscarinic receptors in the CNS. To be noted: cited from earlier work.
Series [6] deals with muscarinic acetylcholine receptors. The series is described as follows: Inhibition of specific binding of 3H-Oxotremorine-M (3H-Oxo). Further details: species or system rat (male Wistar. To be noted: rat cortex; 3H-Oxotremorine 1.0 nM; 20 mM Hepes pH 7.4; 30 min at 25° C. The procedure:
The pharmacological properties of the compounds of the present invention (Formula I) can be illustrated by determining their capability to inhibit the specific binding of ^3 H-Oxotremorine-M (^3 H-Oxo).
^3 H-Oxo labels muscarinic receptors in the CNS (with a preference for agonist domaines of the receptors). Three different sites are labelled by 3H-Oxo. These sites have affinity of 1.0, 20 and 3000 nM, respectively. Using the present experimental conditions only the high and medium affinity sites are determined. The inhibitory effects of compounds on ^3 H-Oxo binding reflects the affinity for muscarinic acetylcholine receptors.
All preparations are performed at 0°-4° C. unless otherwise indicated. Fresh cortex (0.1-1 g) from male Wistar rats (150-250 g) is homogenized for 5-10 s in 10 ml 20 mM Hepes pH: 7.4, with an Ultra-Turrax homogenizer. The homogenizer is rinsed with 10 ml of buffer and the combined suspension centrifuged for 15 min at 40,000×g. The pellet is washed three times with buffer. In each step the pellet is homogenized as before in 2×10 ml of buffer and centrifuged for 10 min at 40,000×g. The final pellet is homogenized in 20 mM Hepes pH: 7.4 (100 ml per g of original tissue) and used for binding assay. Aliquots of 0.5 ml is added 25 μl of test solution and 25 μl of ^3 H-Oxotremorine (1.0 nM, final concentration) mixed and incubated for 30 min at 25° C. Non-specific binding is determined in triplicate using Arecoline (1 μg/ml, final concentration) as the test substance. After incubation samples are added 5 ml of ice-cold buffer and poured directly onto Whatman GF/C glass fiber filters under suction and immediately washed 2 times with 5 ml of ice-cold buffer. The amount of radioactivity on the filters are determined by conventional liquid scintillation counting. Specific binding is total binding minus non-specific binding. Test substances are dissolved in 10 ml water (if necessary heated on a steam-bath for less than 5 minutes) at a concentration of 2.2 mg/ml. 25-75% inhibition of specific binding must be obtained before calculation of IC50.
The test value will be given as IC50 (the concentration (ng/ml) of the test substance which inhibits the specific binding of ^3 H-Oxo by 50%). [formula] where Co is specific binding in control assays and Cx is the specific binding in the test assay. (The calculations assume normal mass-action kinetics).

Like-named read-outs stand apart in the source and are kept apart here.

Take `COC(=O)C1=CCCN(C)C1` [arecoline, methyl 1-methyl-1,2,5,6-tetrahydropyridine-3-carboxylate]: the biological half life entry in series [1] was “very short biological half life”. Also, in the series with muscarinic receptors [2], the “separation between central and peripheral muscarinic effects” value was “small separation between central and peripheral muscarinic effects”. Further, the toxicity result in series [3] was “rather toxic compound”. Besides, the “muscarinic agonist or antagonist activity” value in the series on muscarinic receptors [4] is given as “cholinergic agonist”.

`CC(=O)OC1CN2CCC1CC2` (stereo not drawn) [3-acetoxy-quinuclidine]: the biological half life entry in series [1] is recorded as “the same as indicated for arecoline”. The “separation between central and peripheral muscarinic effects” value with muscarinic receptors [2] is recorded as “the same as indicated for arecoline”. The toxicity result in series [3] is given as “the same as indicated for arecoline”. Also, in the series with muscarinic receptors [4], the “muscarinic agonist or antagonist activity” value is “muscarinic agonist”.

As for `C[N+](C)(C)CC#CCN1CCCC1=O` [Compound 3H-Oxo, ^3 H-Oxotremorine-M], the Kd in series [5] (high affinity site, read-out: affinity of 3H-Oxo, first (high affinity) site) is 1 nM; in series [5] (medium affinity site, read-out: affinity of 3H-Oxo, second (medium affinity) site), 20 nM; in series [5] (third site, not determined under the present experimental conditions, read-out: affinity of 3H-Oxo, third site), 3000 nM.

With `CCCCCCNc1nsnc1C1=CCCN(C)C1` [Compound 46, 3-(4-hexylamino-1,2,5-thiadiazol-3-yl)-1,2,5,6-tetrahydro-1-methylpyridineoxalate], in series [6], the “Inhibition in vitro OXO BINDING (IC50: concentration which inhibits the specific binding of 3H-Oxo by 50%)” value came to 18 ng/mL.

For the compound `C=CCCOc1nsnc1C1=CCCN(C)C1.O=C(O)C(=O)O` [Compound 11, 3-(4-(3-butenyloxy)-1,2,5-thiadiazol-3-yl)-1,2,5,6-tetrahydro-1-methylpyridine oxalate], the “Inhibition in vitro OXO BINDING (IC50: concentration which inhibits the specific binding of 3H-Oxo by 50%)” value in series [6] worked out at 0.9 ng/mL.

On to `CCCOc1nsnc1C1=CCCN(C)C1.O=C(O)C(=O)O` [Compound 3, 1,2,5,6-tetrahydro-1-methyl-3-(4-propoxy-1,2,5-thiadiazol-3-yl)pyridine oxalate], for which the “Inhibition in vitro OXO BINDING (IC50: concentration which inhibits the specific binding of 3H-Oxo by 50%)” value in series [6] came to 0.2 ng/mL.

Take `CN1CCC=C(c2nsnc2Cl)C1.O=C(O)C(=O)O` [Compound 16, 3-(4-chloro-1,2,5-thiadiazol-3-yl)-1,2,5,6-tetrahydro-1-methylpyridine oxalate]: the “Inhibition in vitro OXO BINDING (IC50: concentration which inhibits the specific binding of 3H-Oxo by 50%)” value in series [6] stood at 3.3 ng/mL.

With `CN1CCC=C(c2nsnc2OCC2CC2)C1.O=C(O)C(=O)O` [Compound 14, 3-(4-cyclopropylmethoxy-1,2,5-thiadiazol-3-yl)-1,2,5,6-tetrahydro-1-methylpyridine oxalate], in series [6], the “Inhibition in vitro OXO BINDING (IC50: concentration which inhibits the specific binding of 3H-Oxo by 50%)” value is 0.4 ng/mL.

As to `CCCCCCOc1nsnc1C1=CCCN(C)C1` [Compound 9, 3-(4-hexyloxy-1,2,5-thiadiazol-3-yl)-1,2,5,6-tetrahydro-1-methylpyridineoxalate], the “Inhibition in vitro OXO BINDING (IC50: concentration which inhibits the specific binding of 3H-Oxo by 50%)” value in series [6] was found to be 3.6 ng/mL.

Regarding `Cl.Clc1nsnc1C1=CCCNC1` [Compound 17, 3-(4-chloro-1,2,5-thiadiazol-3-yl)-1,2,5,6-tetrahydropyridine hydrochloride], the “Inhibition in vitro OXO BINDING (IC50: concentration which inhibits the specific binding of 3H-Oxo by 50%)” value in series [6] is 19.0 ng/mL.
